Like-named read-outs stand apart in the source and are kept apart here.
Biological target: hPAD4 enzyme (Homo sapiens (Human), UniProt Q9UM07)
Assay: PAD4 assay (hPAD4-RFMS, RapidFire mass spectrometry)
Type: biochemical
Details: 100 nM hPAD4, 50 μM substrate peptide, 1 mM CaCl2, 65 mins at 37° C.
Protocol: Compounds of the present invention were assayed as inhibitors of PAD4 using the assay protocol described below.
Compounds were solubilized in 100% DMSO to achieve 100 mM final compound concentration. Compound stock solutions were stored at RT. A series of dilutions were prepared in DMSO and mixed 8 times with 20 μL mixing volume. Final assay conditions were as follows:
Assay buffer (as aforementioned): 100 mM Tris-HCl (pH 7.6), 2 mM DTT, 1 mM CaCl2
Total incubation time: 65 mins at 37° C.
Stop solution: 40 μl 5% TCA in ACN
0.25 μL of compound solution was added to 10 μL of 200 nM PAD4 in assay buffer (100 mM Tris-HCl pH 7.6, 2 mM DTT). After 5 mins, 10 μL of 100 μM of substrate in buffer (100 mM Tris-HCl pH 7.6, 2 mM DTT, 2 mM CaCl2) was added and the reaction incubated for 60 mins at 37° C. The enzymatic reaction was quenched by addition of 40 μl of 5% TCA in ACN (1.7% TCA final concentration) stop solution.
The compound numbers correspond to the compound numbers in Tables 1 and 2. […] The term pIC50=−log(IC50). […] “NA” stands for “not assayed.”

[1] = read-out: hPAD4-RFMS: IC50 (μM) (Average)
[2] = read-out: hPAD4-RFMS: pIC50 (Average) (converted)

hPAD4 enzyme, sequence (Q9UM07 whole entry): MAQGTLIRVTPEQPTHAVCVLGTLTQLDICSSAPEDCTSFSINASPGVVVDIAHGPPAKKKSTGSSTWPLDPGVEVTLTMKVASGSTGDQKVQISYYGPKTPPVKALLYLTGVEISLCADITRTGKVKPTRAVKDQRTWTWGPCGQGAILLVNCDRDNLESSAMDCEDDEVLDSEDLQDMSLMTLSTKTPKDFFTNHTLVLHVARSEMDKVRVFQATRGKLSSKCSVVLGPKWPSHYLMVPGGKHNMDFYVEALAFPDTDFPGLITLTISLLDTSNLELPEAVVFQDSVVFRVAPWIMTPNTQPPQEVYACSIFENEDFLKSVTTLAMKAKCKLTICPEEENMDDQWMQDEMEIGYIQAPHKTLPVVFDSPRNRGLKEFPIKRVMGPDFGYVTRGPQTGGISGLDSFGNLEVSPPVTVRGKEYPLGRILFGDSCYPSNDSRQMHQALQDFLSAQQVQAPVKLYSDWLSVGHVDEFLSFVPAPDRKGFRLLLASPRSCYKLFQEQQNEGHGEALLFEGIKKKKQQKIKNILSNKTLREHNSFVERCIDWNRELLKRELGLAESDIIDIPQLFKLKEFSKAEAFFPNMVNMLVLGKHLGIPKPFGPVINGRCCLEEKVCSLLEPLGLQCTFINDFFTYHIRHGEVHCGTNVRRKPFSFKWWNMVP

| IC50 [1] | IC50 [2] | hPAD4-RFMS: pIC50 (Average) | Structure (SMILES) |
| --- | --- | --- | --- |
| > 100 µM | 100 to 100000 µM |  | C#CCOCCOCCOc1ccc(/C=C/C(=O)c2c(-c3ccccc3)c3ccccc3[nH]c2=O)cc1 [Compound I-109, 4-phenyl-3-[(2E)-3-(4-{2-[2-(prop-2-yn-1-yloxy)ethoxy]ethoxy}phenyl)prop-2-enoyl]-1,2-dihydroquinolin-2-one] |
| > 100 µM | 100 to 100000 µM |  | O=C(/C=C/c1cccnc1)c1c(-c2ccccn2)c2ccccc2[nH]c1=O [Compound I-124] |
| 3 to 20 µM | < 10 µM |  | COc1ccc(/C=C/C(=O)c2c(-c3ccccc3)c3ccccc3[nH]c2=O)cc1 [Compound I-139] |
| 20 to 100 µM |  | F (pIC50 of 4-5) | O=C(/C=C/c1nc2ccccc2[nH]1)c1c(-c2ccccc2)c2ccccc2[nH]c1=O [Compound I-103] |
| > 100 µM | 100 to 100000 µM |  | O=C(/C=C/c1ccccn1)c1c(-c2ccc(F)cc2)c2ccccc2[nH]c1=O [Compound I-108] |
| > 100 µM | 100 to 100000 µM |  | O=C(/C=C/c1cncnc1)c1c(-c2ccccc2)c2cnccc2[nH]c1=O [Compound I-90, 4-phenyl-3-[(2E)-3-(pyrimidin-5-yl)prop-2-enoyl]-1,2-dihydro-1,6-naphthyridin-2-one] |
| > 100 µM | 100 to 100000 µM |  | O=C(/C=C/c1cncnc1)c1c(-c2cccnc2)c2ccccc2[nH]c1=O [Compound I-95] |
| > 100 µM | 100 to 100000 µM |  | COc1ccc(/C=C/C(=O)c2ccc[nH]c2=O)cc1 [Compound I-151] |
| > 100 µM | 10 to 100 µM |  | Cn1c(/C=C/C(=O)c2c(-c3ccccc3)c3ccccc3n(C)c2=O)nc2ccccc21 [Compound I-72] |
